Results: patent publication US20230131402A1, “SPIRO-LACTAM NMDA RECEPTOR MODULATORS AND USES THEREOF” (Aptinyx Inc., priority 2016, published 2023)
Like-named read-outs stand apart in the source and are kept apart here.

How the values were obtained:
NMDAR2C = target: T1, NMDAR2C (Homo sapiens, UniProt Q14957); test: [3H]MK-801 binding, NMDAR2C expressing HEK cell membranes; assay type: biochemical; settings: 50 μM glutamate
T1 construct: expressed in transfected cells; host or cells: HEK cells (membrane extract)
T1 sequence (Q14957 20-1233, species assumed, other chains not shown): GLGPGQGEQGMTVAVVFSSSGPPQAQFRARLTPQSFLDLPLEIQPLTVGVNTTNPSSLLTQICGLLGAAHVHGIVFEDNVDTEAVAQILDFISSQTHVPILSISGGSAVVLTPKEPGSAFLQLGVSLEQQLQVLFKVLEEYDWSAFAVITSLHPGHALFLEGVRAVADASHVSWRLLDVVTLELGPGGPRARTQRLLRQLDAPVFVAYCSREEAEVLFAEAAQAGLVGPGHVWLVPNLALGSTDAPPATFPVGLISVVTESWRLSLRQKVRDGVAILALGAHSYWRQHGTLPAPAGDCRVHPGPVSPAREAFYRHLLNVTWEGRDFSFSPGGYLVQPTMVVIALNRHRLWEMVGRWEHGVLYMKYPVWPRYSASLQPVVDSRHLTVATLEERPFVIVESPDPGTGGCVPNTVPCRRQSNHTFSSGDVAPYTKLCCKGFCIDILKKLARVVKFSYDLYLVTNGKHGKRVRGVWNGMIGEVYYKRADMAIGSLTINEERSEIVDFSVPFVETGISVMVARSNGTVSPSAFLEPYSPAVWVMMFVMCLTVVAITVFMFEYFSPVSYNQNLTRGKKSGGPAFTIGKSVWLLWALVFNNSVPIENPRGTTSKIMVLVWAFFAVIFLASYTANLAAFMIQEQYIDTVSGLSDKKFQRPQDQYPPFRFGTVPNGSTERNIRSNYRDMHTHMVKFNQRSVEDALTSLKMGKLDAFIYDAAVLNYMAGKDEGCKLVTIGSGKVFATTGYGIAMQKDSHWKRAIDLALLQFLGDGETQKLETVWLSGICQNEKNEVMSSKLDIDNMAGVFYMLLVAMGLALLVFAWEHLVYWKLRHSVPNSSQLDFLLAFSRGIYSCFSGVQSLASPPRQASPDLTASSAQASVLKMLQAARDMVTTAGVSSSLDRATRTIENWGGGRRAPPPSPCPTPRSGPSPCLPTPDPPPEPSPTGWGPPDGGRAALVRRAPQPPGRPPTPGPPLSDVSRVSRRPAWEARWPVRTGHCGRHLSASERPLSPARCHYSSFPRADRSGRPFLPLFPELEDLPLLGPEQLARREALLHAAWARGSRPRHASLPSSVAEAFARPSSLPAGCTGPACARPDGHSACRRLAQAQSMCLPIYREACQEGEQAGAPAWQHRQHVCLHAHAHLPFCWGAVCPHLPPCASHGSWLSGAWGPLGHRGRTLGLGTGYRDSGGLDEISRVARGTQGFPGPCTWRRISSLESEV
Protocol: (§1) Assays were conducted as described by Moskal et al., “GLYX-13: a monoclonal antibody-derived peptide that acts as an N-methyl-D-aspartate receptor modulator,” Neuropharmacology, 49, 1077-87, 2005. These studies were designed to determine if the test compounds act to facilitate NMDAR activation in NMDAR2A, NMDAR2B, NMDAR2C or NMDAR2D expressing HEK cell membranes as measured by increases in [^3H]MK-801 binding.
(§2) In the assay, 300 μg of NMDAR expressing HEK cell membrane extract protein was preincubated for 15 minutes at 25° C. in the presence of saturating concentrations of glutamate (50 μM) and varying concentrations of test compound (1×10^−15M−1×10^−7M), or 1 mM glycine. Following the addition of 0.3 μCi of [^3H]MK-801 (22.5 Ci/mmol), reactions were again incubated for 15 minutes at 25° C. (nonequilibrium conditions). Bound and free [^3H]MK-801 were separated via rapid filtration using a Brandel apparatus.
(§3) In analyzing the data, the DPM (disintegrations per minute) of [^3H]MK-801 remaining on the filter were measured for each concentration of test compound or for 1 mM glycine. The DPM values for each concentration of a ligand (N=2) were averaged. The baseline value was determined from the best fit curve of the DPM values modeled using the GraphPad program and the log(agonist) vs. response(three parameters) algorithm was then subtracted from all points in the dataset. The % maximal [^3H]MK-801 binding was then calculated relative to that of 1 mM glycine: all baseline subtracted DPM values were divided by the average value for 1 mM glycine. The EC50 and % maximal activity were then obtained from the best fit curve of the % maximal [^3H]MK-801 binding data modelled using the GraphPad program and the log(agonist) vs. response(three parameters) algorithm.
(§4) The tables below summarize the results for the wild type NMDAR agonists NMDAR2A, NMDAR2B, NMDAR2C, and NMDAR2D, and whether the compound is not an agonist (−), is an agonist (+), or is a strong agonist (++), where column A is based on the % maximal [^3H]MK-801 binding relative to 1 mM glycine (−=0; <100%=+; and >100%=++); and column B is based on log EC50 values (0=−; ≥1×10^−9M (e.g., −8)=+; and <1×10^−9M (e.g., −10)=++).

IV pharmacokinetics = assay type: in vivo, Sprague Dawley rats; settings: rat, 2 mg/kg, normal saline (compounds marked * in 1% NMP and 99% normal saline)
Excerpt: The table below summarizes the results of the IV pharmacokinetics.

NMDAR2A = target: T2, NMDAR2A (Homo sapiens, UniProt Q12879); test: [3H]MK-801 binding, NMDAR2A expressing HEK cell membranes; assay type: biochemical; settings: 50 μM glutamate
T2 construct: expressed in transfected cells; host or cells: HEK cells (membrane extract)
T2 sequence (Q12879 23-1464, species assumed, other chains not shown): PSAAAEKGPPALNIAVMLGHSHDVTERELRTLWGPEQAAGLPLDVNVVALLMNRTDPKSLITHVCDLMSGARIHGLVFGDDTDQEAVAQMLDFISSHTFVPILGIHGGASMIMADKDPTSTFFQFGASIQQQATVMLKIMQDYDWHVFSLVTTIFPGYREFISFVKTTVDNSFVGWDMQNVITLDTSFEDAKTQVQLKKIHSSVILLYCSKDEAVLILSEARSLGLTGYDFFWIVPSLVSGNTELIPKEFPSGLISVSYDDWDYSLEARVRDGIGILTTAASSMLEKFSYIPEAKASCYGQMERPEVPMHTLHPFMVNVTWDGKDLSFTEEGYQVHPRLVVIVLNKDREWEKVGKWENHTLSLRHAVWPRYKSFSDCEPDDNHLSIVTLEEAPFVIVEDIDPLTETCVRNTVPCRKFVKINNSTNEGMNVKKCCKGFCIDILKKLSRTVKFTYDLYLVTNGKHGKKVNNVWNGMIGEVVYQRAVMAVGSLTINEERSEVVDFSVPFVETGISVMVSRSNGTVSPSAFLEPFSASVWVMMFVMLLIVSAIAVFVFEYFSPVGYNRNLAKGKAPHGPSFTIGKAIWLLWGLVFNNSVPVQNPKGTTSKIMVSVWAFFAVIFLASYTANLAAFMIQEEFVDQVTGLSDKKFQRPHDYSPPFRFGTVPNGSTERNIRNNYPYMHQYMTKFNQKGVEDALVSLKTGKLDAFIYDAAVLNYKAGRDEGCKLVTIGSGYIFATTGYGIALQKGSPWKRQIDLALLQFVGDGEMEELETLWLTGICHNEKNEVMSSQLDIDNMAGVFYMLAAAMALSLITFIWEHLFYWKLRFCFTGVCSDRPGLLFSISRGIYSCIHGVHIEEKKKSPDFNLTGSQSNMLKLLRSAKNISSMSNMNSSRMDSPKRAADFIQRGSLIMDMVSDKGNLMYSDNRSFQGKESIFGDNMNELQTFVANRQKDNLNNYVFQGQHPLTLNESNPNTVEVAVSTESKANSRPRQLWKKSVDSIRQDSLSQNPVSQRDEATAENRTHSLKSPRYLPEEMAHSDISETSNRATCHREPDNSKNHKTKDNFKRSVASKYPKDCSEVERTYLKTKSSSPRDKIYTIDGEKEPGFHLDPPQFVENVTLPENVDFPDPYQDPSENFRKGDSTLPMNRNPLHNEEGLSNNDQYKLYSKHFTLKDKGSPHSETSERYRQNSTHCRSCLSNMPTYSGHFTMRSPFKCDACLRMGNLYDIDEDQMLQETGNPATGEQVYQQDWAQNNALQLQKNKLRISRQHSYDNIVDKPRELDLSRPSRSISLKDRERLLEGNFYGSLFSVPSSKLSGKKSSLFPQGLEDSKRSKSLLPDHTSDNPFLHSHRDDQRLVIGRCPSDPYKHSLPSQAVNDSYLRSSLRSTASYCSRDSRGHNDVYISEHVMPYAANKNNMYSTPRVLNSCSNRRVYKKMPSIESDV
How it was run: (§5)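 HEK membranes expressing NMDAR2A, 2B, 2C or 2D (300 μg protein) were preincubated 15 min at 25 °C with 50 μM glutamate and compound (1×10^−15–1×10^−7 M), then 15 min with 0.3 μCi [3H]MK-801 (nonequilibrium) before filtration. Baseline-subtracted binding was normalized to 1 mM glycine, yielding EC50 and % maximal activity.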

[1] = test system: positive (hedonic) 50-kHz ultrasonic vocalizations (USVs); test: Positive emotional learning (PEL) test; assay type: in vivo, rats; settings: rat, PO, dose .001-1 mg/kg, 1 h after administration
Protocol: Experiments were conducted as described in Burgdorf et al., “The effect of selective breeding for differential rates of 50-kHz ultrasonic vocalizations on emotional behavior in rats,” Devel. Psychobiol., 51:34-46 (2009). Rat 50-kHz ultrasonic vocalization (hedonic USVs) is a validated model for the study of positive affective state and is best elicited by rough-and-tumble play.
The PEL assay measures the acquisition of positive (hedonic) 50-kHz ultrasonic vocalizations (USVs) to a social stimulus, heterospecific rough and tumble play stimulation. Heterospecific rough-and-tumble play stimulation was administered by the experimenter's right hand. One hour after administration of test compound or vehicle negative control (0.5% sodium carboxymethyl cellulose in 0.9% sterile saline vehicle), animals received 3 min of heterospecific rough-and-tumble play that consisted of alternating 15 sec blocks of heterospecific play and 15 sec of no-stimulation. High frequency ultrasonic vocalizations (USVs) were recorded and analyzed by sonogram with Avasoft SASlab Pro (Germany) as previously described by Burgdorf et al., “Positive emotional learning is regulated in the medial prefrontal cortex by GluN2B-containing NMDA receptors,” Neuroscience, 192:515-523 (2011). Frequency modulated 50-kHz US V s that occurred during each of the no-stimulation periods were quantified to measure PEL. Animals were not habituated to play stimulation before testing. Positive emotional learning was measured during the conditioned stimulus (CS) trials preceding the tickle unconditioned stimulus (UCS) trials. Animals received 15 second trials consisting of 6 CS and 6 UCS trials each (3 min total).
The table below summarizes the findings. As each experiment includes its own vehicle group, an example (typical) vehicle score is shown. Max effect (mean number of 50 kHz USVs per 15 seconds) is reported as ∧: <6.0; *: 6.0-7.6; **: 7.7-10; ***: 10.1-20.

NMDAR2B = target: T3, NMDAR2B (Homo sapiens, UniProt Q13224); test: [3H]MK-801 binding, NMDAR2B expressing HEK cell membranes; assay type: biochemical; settings: 50 μM glutamate
T3 construct: expressed in transfected cells; host or cells: HEK cells (membrane extract)
T3 sequence (Q13224 27-1484, species assumed, other chains not shown): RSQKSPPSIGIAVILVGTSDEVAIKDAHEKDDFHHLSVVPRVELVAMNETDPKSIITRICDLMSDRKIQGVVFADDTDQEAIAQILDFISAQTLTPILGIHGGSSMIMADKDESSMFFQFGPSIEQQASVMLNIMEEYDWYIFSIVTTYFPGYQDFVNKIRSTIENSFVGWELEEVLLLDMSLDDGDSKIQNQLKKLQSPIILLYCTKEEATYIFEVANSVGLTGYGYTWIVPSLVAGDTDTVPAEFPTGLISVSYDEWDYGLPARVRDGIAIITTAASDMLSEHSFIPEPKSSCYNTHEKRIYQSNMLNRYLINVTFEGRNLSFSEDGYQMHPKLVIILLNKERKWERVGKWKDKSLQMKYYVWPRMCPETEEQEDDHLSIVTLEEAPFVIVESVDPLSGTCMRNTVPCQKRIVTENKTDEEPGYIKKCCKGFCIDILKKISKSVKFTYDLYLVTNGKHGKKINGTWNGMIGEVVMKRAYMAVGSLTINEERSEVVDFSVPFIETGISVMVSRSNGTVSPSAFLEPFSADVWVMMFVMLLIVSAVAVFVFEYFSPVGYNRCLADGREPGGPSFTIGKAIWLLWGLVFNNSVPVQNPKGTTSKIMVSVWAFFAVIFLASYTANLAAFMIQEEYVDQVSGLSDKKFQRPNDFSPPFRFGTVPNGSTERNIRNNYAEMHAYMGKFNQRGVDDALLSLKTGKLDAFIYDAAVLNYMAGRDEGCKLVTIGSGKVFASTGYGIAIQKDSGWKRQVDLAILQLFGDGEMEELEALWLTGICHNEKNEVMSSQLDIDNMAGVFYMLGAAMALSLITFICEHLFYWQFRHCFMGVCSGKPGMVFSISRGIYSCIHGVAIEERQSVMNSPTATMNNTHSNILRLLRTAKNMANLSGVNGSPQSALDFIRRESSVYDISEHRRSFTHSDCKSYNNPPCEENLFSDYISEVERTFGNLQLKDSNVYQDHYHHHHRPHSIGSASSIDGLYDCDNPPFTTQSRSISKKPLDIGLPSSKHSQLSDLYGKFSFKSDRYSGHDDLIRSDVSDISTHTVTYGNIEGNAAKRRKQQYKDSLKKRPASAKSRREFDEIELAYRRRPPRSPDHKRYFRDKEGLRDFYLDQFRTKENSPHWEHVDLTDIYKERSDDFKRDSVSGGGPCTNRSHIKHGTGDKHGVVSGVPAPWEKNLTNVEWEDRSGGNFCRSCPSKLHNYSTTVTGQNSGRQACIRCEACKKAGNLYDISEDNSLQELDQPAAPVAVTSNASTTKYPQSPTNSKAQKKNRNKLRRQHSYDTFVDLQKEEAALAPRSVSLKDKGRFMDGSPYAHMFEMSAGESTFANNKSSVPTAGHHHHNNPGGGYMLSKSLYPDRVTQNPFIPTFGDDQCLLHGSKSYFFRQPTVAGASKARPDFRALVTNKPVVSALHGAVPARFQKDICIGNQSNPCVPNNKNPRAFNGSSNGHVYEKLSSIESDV
How it was run: as §5

[2] = Oral pharmacokinetics (plasma, brain, CSF); settings: rat, per os, 10 mg/kg
Protocol: (§6) Plasma, brain, and CSF samples were analyzed at various time points over a 24 hour period.

NMDAR2D = target: T4, NMDAR2D (Homo sapiens, UniProt O15399); test: [3H]MK-801 binding, NMDAR2D expressing HEK cell membranes; assay type: biochemical; settings: 50 μM glutamate
T4 construct: expressed in transfected cells; host or cells: HEK cells (membrane extract)
Protocol: as §1, §2, §3, §4

[3] = Sprague Dawley, rat, in vivo, po, 10 mg/kg
Protocol: as §6

in vivo = settings: Sprague Dawley, rat, po, 10 mg/kg
Protocol: as §6

[4] = normal saline (compounds marked * in 1% NMP and 99% normal saline)

Compound: CN1CCN(Cc2ccccc2)C2(CNC2=O)C1 (single isomer, unassigned) [EG-1, 5-Benzyl-8-Methyl-2,5,8-Triazaspiro[3.5]Nonan-1-One]
- NMDAR2C A: % maximal [3H]MK-801 binding relative to 1 mM glycine (NMDAR2C): ++ (>100%=++)
- EC50 (NMDAR2C; read-out: NMDAR2C B: log EC50 (converted)): > 1 nM
- AUClast (IV pharmacokinetics): 622.05 ng·h/mL
- C0 (IV pharmacokinetics): 2010.43 ng/mL
- Cl (IV pharmacokinetics): 53.51 mL/min/kg
- T1/2 (IV pharmacokinetics): 0.43 h
- Vss (IV pharmacokinetics): 0.96 L/kg
- NMDAR2A A: % maximal [3H]MK-801 binding relative to 1 mM glycine (NMDAR2A): + (<100%=+)
- EC50 (NMDAR2A; read-out: NMDAR2A B: log EC50 (converted)): < 1 nM
- Max Effect (mean number of 50 kHz USVs per 15 seconds) [1]: *** (***: 10.1-20)
- NMDAR2B A: % maximal [3H]MK-801 binding relative to 1 mM glycine (NMDAR2B): + (<100%=+)
- EC50 (NMDAR2B; read-out: NMDAR2B B: log EC50 (converted)): < 1 nM
- % F [2]: 14%
- CSF Cmax ([2]; CSF): 367.18 ng/mL
- Brain Cmax ([2]; brain): 334.3 ng/mL
- AUClast [2, 4]: 428.79 ng·h/mL
- Tmax [2, 4]: 0.25 h
- Cmax ([2]; plasma, normal saline (compounds marked * in 1% NMP and 99% normal saline)): 700.4 ng/mL
- NMDAR2D A: % maximal [3H]MK-801 binding relative to 1 mM glycine (NMDAR2D): − (−=0)

Compound: C[C@@H](O)[C@H](N)C(=O)N1CCN(C)CC12CNC2=O (single isomer, unassigned) [EJ-1, 5-(L-Threonyl)-8-Methyl-2,5,8-Triazaspiro[3.5]Nonan-1-One]
- % F [3]: 4%
- AUC(0-t) (in vivo; AUClast): 568 ng·h/mL
- Cmax (in vivo; Cmax): 186 ng/mL
- Tmax (in vivo; Tmax): 0.75 h
- AUC(0-t) (IV pharmacokinetics; Sprague Dawley, in vivo, iv): 3160 ng·h/mL
- clearance (IV pharmacokinetics; Sprague Dawley, in vivo, iv): 10.5 mL/min/kg
- half-life (IV pharmacokinetics; Sprague Dawley, in vivo, iv): 1.3 h
- C0 (IV pharmacokinetics; Sprague Dawley, in vivo, iv, read-out: C0): 4030 ng/mL
- Vss (IV pharmacokinetics): 0.62 L/kg

Compound: C[C@@H](O)[C@H](N)C(=O)N1CCN(C)CC12CNC2=O (single isomer, unassigned) [EJ-2, 5-(L-Threonyl)-8-Methyl-2,5,8-Triazaspiro[3.5]Nonan-1-One]
- % F [3]: 9%
- AUClast [3]: 811.97 ng·h/mL
- Cmax [3]: 201.12 ng/mL
- Tmax [3]: 1.33 h
- AUClast (IV pharmacokinetics): 1737 ng·h/mL
- C0 (IV pharmacokinetics): 3415.56 ng/mL
- Cl (IV pharmacokinetics): 18.95 mL/min/kg
- T1/2 (IV pharmacokinetics): 1.59 h
- Vss (IV pharmacokinetics): 1.35 L/kg
